Consider one compound from patent US11999786B2, “Anti-CD48 antibodies, antibody drug conjugates, and uses thereof” (Novartis AG, priority 2020, dated 2024).

What all share (format): cell-based
One experiment concerns KMS-21-BM. The experiment in a line: Internalization and cell proliferation assay (CellTiter-Glo, with secondary anti-human Fc-VC-MMAE ADC). As to the method:
(§1) The internalization activity of CD48 antibodies were tested against three endogenous cancer cell lines: KMS-27: JCRB No. JCRB1188 cultured in RPMI-1640+10% FBS; NCI-H929: ATCC No. CRL-9068 cultured in RPMI-1640+10% FBS+0.05 mM 2-mercaptoethanol; and KMS-21-BM: JCRB No. JCRB1185 cultured in RPMI-1640+10% FBS.
(§2) CD48 antibodies were synthesized and expressed generally as described in Example 5. Cell lines were cultured in media that is optimal for their growth at 5% CO2, 37° C. in a tissue culture incubator. Prior to seeding for the proliferation assay, the cells were split at least 2 days before the assay to ensure optimal growth density. On the day of seeding, cell viability and cell density were determined using a cell counter (Vi-Cell XR Cell Viability Analyzer, Beckman Coulter). Cells with higher than 85% viability were seeded in white clear bottom 384-well TC treated plates (Corning cat. #3765). Cells were seeded at a density of 1,000 cells per well in 40 μL of standard growth media. Plates were incubated at 5% CO2, 37° C. overnight in a tissue culture incubator. The next day free MMAE payload, a CD48A-CysMab-VC-MMAE ADC (synthesis described in Example 5), CD48 antibodies, and a non-targeting isotype antibody were prepared at 10× in standard growth media. The MMAE free payload and CD48A-CysMab-VC-MMAE ADC were added to the cells resulting in final concentrations of 0.007-150 nM and a final volume of 50 μL per well. The prepared antibody treatments, including CD48 IgGs and a non-targeting isotype antibody, were then added to the cells resulting in final concentrations of 0.001-20 nM and a final volume of 45 μL per well. An anti-human Fc-VC-MMAE ADC (DAR2.0) was prepared at 10× in standard growth media. The prepared ADC was then added to the cells resulting in a final concentration of 60 nM and a final volume of 50 μL per well. Each drug concentration was tested in quadruplets. Plates were incubated at 5% CO2, 37° C. for 5 days in a tissue culture incubator, after which cell viability was assessed through the addition of 25 μL of CellTiter Glo® (Promega, cat #G7573), a reagent which lyses cells and measures total adenosine triphosphate (ATP) content. Plates were incubated at room temperature for 10 minutes to stabilize luminescent signals prior to reading using a luminescence reader (EnVision Multilabel Plate Reader, PerkinElmer). To evaluate the effect of the drug treatments, luminescent counts from wells containing untreated cells (100% viability) were used to normalize treated samples. A variable slope model was applied to fit a nonlinear regression curve to the data in GraphPad PRISM version 7.02 software. IC50 and Amax values were extrapolated from the resultant curves.
(§3) The dose response curves of representative cancer cell lines are shown in FIG. 2A (KMS-27), FIG. 2B (NCI-H929), and FIG. 2C (KMS-21-BM).

A further experiment deals with KMS-27. The description is as above. Particulars: KMS-27, CellTiter-Glo. As to the method: as §1, §2, §3
The subject of a further experiment is NCI-H929. The description is as above. The procedure:
as §1, §2, §3

Experiment [1] relates to KMS-27, NCI-H929 and KMS-21-BM cancer cell lines. Description: Internalization and cell proliferation assay, statements across the three cancer cell lines. The note with it: range across the three cell lines; dosed directly, 5 days, CellTiter-Glo. As to the method: as §1
CD48 antibodies were synthesized and expressed generally as described in Example 5. Cell lines were cultured in media that is optimal for their growth at 5% CO2, 37° C. in a tissue culture incubator. Prior to seeding for the proliferation assay, the cells were split at least 2 days before the assay to ensure optimal growth density. On the day of seeding, cell viability and cell density were determined using a cell counter (Vi-Cell XR Cell Viability Analyzer, Beckman Coulter). Cells with higher than 85% viability were seeded in white clear bottom 384-well TC treated plates (Corning cat. #3765). […] Plates were incubated at 5% CO2, 37° C. for 5 days in a tissue culture incubator, after which cell viability was assessed through the addition of 25 μL of CellTiter Glo® (Promega, cat #G7573), a reagent which lyses cells and measures total adenosine triphosphate (ATP) content. Plates were incubated at room temperature for 10 minutes to stabilize luminescent signals prior to reading using a luminescence reader (EnVision Multilabel Plate Reader, PerkinElmer). […]

pIC50: −log10 of the molar value. Non-standard residues stand in square brackets, D forms with d. Residues, ends and D or L forms follow the SMILES beside them. *: point of attachment. Dolaproine = CO[C@@H]([C@@H]1CCCN1)[C@@H](C)C(=O)O; Dil = CC[C@H](C)[C@H](NC)[C@@H](CC(=O)O)OC; X1 = C[C@@H](N*)[C@@H](O)c1ccccc1; NMeV = CN[C@H](C(=O)O)C(C)C

In the case of `CC[C@H](C)[C@@H]([C@@H](CC(=O)N1CCC[C@H]1[C@H](OC)[C@@H](C)C(=O)N[C@H](C)[C@@H](O)c1ccccc1)OC)N(C)C(=O)[C@@H](NC(=O)[C@@H](NC)C(C)C)C(C)C` [MMAE] (H-[NMeV]V[Dil][Dolaproine]-X1), the pIC50 is 10.62 in the experiment on KMS-21-BM, 10.68 in the experiment with KMS-27, 9.94 in the experiment with NCI-H929 and 9.94 to 10.68 in experiment [1]. Besides, the “Span (Amax)” value was 72.9 in the experiment with KMS-21-BM, 83.9 in the experiment with KMS-27 and 88.5 in the experiment on NCI-H929.
